In patent publication US8680113B2, “BMI-1 protein expression modulators” (PTC Therapeutics, Inc., priority 2008, dated 2014):
pIC50: −log10 of the molar value.

test system: Bmi-1; test: Sandwich ELISA Assay (Bmi-1 ELISA in HT-1080 cells); assay type: cell-based, human
Method in brief: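 Lysate Bmi-1 was quantified against a recombinant GST-Bmi-1 standard (0-8000 pg/mL) by sandwich ELISA read at OD450 with OD570 reference. The ELISA used mouse monoclonal capture, rabbit anti-Bmi-1, HRP anti-rabbit IgG and TMB. Before lysis, HT-1080 cells seeded at 8000/well were exposed to compounds for 40-48 h at 37°C with 0.5% final DMSO.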

Structure (SMILES)	pIC50
CN(C)c1ccc(Nc2nccc(-c3cnc4ccccn34)n2)cc1 [Cpd 254, N′-[4-(imidazo[1,2-a]pyridin-3-yl)pyrimidin-2-yl]-N,N-dimethylbenzene-1,4-diamine]	> 6.30
Cc1nc2ccc(F)cn2c1-c1csc(Nc2ccc(I)cc2)n1 [Cpd 156, 4-(6-fluoro-2-methylimidazo[1,2-a]pyridine-3-yl)-N-(4-iodophenyl)-1,3-thiazol-2-amine]	> 6.30
CCCc1nc2ncccn2c1-c1csc(Nc2ccc(N(C)C)cc2)n1 [Cpd 183, N,N-dimethyl-N′-[4-(2-propylimidazo[1,2-a]pyrimidin-3-yl)-1,3-thiazol-2-yl]benzene-1,4-diamine]	> 6.30
COc1cccc(Nc2nccc(-c3cnc4ncccn34)n2)c1 [Cpd 260, 4-(imidazo[1,2-a]pyrimidin-3-yl)-N-(3-methoxyphenyl)pyrimidin-2-amine]	> 6.30
COc1ccc(Nc2nc(-c3c(C)nc4ccccn34)cs2)cc1 [Cpd 44, N-(4-methoxyphenyl)-4-(2-methylimidazo[1,2-a]pyridin-3-yl)-1,3-thiazol-2-amine]	> 6.30
Cc1nc2ncccn2c1-c1csc(Nc2c(Br)cc(Br)cc2Br)n1 [Cpd 22, 4-(2-methylimidazo[1,2-a]pyrimidin-3-yl)-N-(2,4,6-tribromophenyl)thiazol-2-amine]	> 6.30
COc1ccc(Nc2nc(-c3c(C)nc4ncccn34)cs2)cc1F [Cpd 45, N-(3-fluoro-4-methoxyphenyl)-4-(2-methylimidazo[1,2-a]pyrimidin-3-yl)-1,3-thiazol-2-amine]	> 6.30
COc1ccc(Nc2nc(-c3c(C)nc4ccc(Cl)cn34)cs2)cc1OC [Cpd 207, 4-(6-chloro-2-methylimidazo[1,2-a]pyridin-3-yl)-N-(3,4-dimethoxyphenyl)-1,3-thiazol-2-amine]	> 6.30
Cc1ccc2nc(C)c(-c3csc(Nc4ccc(I)cc4)n3)n2c1 [Cpd 76, 4-(2,6-dimethylimidazo[1,2-a]pyridin-3-yl)-N-(4-iodophenyl)-1,3-thiazol-2-amine]	> 6.30
COc1ccc(Nc2nc(-c3cnc4ccc(Cl)cn34)cs2)cc1Cl [Cpd 109, 4-(6-chloroimidazo[1,2-a]pyridin-3-yl)-N-(3-chloro-4-methoxyphenyl)-1,3-thiazol-2-amine]	> 6.30
Cc1nc2ccccn2c1-c1ccnc(Nc2ccc(C(=O)O)cc2)n1 [Cpd 196, 4-{[4-(2-methylimidazo[1,2-a]pyridin-3-yl)pyrimidin-2-yl]amino}benzoic acid]	> 6.30
CCCc1nc2ncccn2c1-c1csc(Nc2ccc(OC)cc2)n1 [Cpd 186, N-(4-methoxyphenyl)-4-(2-propylimidazo[1,2-a]pyrimidin-3-yl)-1,3-thiazol-2-amine]	> 6.30
Cc1nc2ccc(Cl)cn2c1-c1csc(Nc2ccc(Br)cc2)n1 [Cpd 61, N-(4-bromophenyl)-4-(6-chloro-2-methylimidazo[1,2-a]pyridin-3-yl)-1,3-thiazol-2-amine]	> 6.30
CN(C)c1cccc(Nc2nccc(-c3cnc4ncccn34)n2)c1 [Cpd 264, N′-[4-(imidazo[1,2-a]pyrimidin-3-yl)pyrimidin-2-yl]-N,N-dimethylbenzene-1,3-diamine]	> 6.30
Cc1nc2ccccn2c1-c1csc(Nc2ccc(O)c(O)c2)n1 [Cpd 201, 4-{[4-(2-methylimidazo[1,2-a]pyridin-3-yl)-1,3-thiazol-2-yl]amino}benzene-1,2-diol]	> 6.30
COc1ccc(Nc2nc(-c3c(C)nc4ccc(Br)cn34)cs2)cc1Cl [Cpd 103, 4-(6-bromo-2-methylimidazo[1,2-a]pyridin-3-yl)-N-(3-chloro-4-methoxyphenyl)-1,3-thiazol-2-amine]	> 6.30
Cc1nc2ccccn2c1-c1csc(Nc2ccc(Cl)cc2)n1 [Cpd 199, N-(4-chlorophenyl)-4-(2-methylimidazo[1,2-a]pyridin-3-yl)-1,3-thiazol-2-amine]	> 6.30
CCc1ccc(Nc2nc(-c3c(C)nc4ccc(Cl)cn34)cs2)cc1 [Cpd 90, 4-(6-chloro-2-methylimidazo[1,2-a]pyridin-3-yl)-N-(4-ethylphenyl)-1,3-thiazol-2-amine]	> 6.30
Cc1nc2ccc(Cl)cn2c1-c1csc(Nc2cccc(Br)c2)n1 [Cpd 212, N-(3-bromophenyl)-4-(6-chloro-2-methylimidazo[1,2-a]pyridin-3-yl)-1,3-thiazol-2-amine]	> 6.30
COc1cccc(Nc2nc(-c3c(C)nc4c(C)cccn34)cs2)c1 [Cpd 225, 4-(2,8-dimethylimidazo[1,2-a]pyridin-3-yl)-N-(3-methoxyphenyl)-1,3-thiazol-2-amine]	> 6.30
Cc1nc2ccccn2c1-c1ccnc(Nc2ccc3c(c2)OCO3)n1 [Cpd 123, N-(1,3-benzodioxol-5-yl)-4-(2-methylimidazo[1,2-a]pyridin-3-yl)pyrimidin-2-amine]	> 6.30
COc1ccc(Nc2nc(-c3c(C)nc4ccccn34)cs2)cc1Cl [Cpd 50, N-(3-chloro-4-methoxyphenyl)-4-(2-methylimidazo[1,2-a]pyridin-3-yl)-1,3-thiazol-2-amine]	> 6.30

Structure (SMILES)	pIC50
CCCc1nc2ccccn2c1-c1csc(Nc2ccc(OC)c(F)c2)n1 [Cpd 171, N-(3-fluoro-4-methoxyphenyl)-4-(2-propylimidazo[1,2-a]pyridin-3-yl)-1,3-thiazol-2-amine]	> 6.30
Ic1ccc(Nc2nc(-c3cnc4ncccn34)cs2)cc1 [Cpd 83, 4-(imidazo[1,2-a]pyrimidin-3-yl)-N-(4-iodophenyl)-1,3-thiazol-2-amine]	6.00 to 6.30
COc1ccc(Nc2nc(-c3c(C)nc4ccc(Cl)cn34)cs2)cc1F [Cpd 96, 4-(6-chloro-2-methylimidazo[1,2-a]pyridin-3-yl)-N-(3-fluoro-4-methoxyphenyl)-1,3-thiazol-2-amine]	> 6.30
Cc1ccc(N(C)c2nccc(-c3c(C)nc4ncccn34)n2)cc1 [Cpd 170, N-methyl-4-(2-methylimidazo[1,2-a]pyrimidin-3-yl)-N-(4-methylphenyl)pyrimidin-2-amine]	> 6.30
Cc1nc2c(Br)cccn2c1-c1csc(Nc2ccc3c(c2)OCO3)n1 [Cpd 235, N-(1,3-benzodioxol-5-yl)-4-(8-bromo-2-methylimidazo[1,2-a]pyridin-3-yl)-1,3-thiazol-2-amine]	> 6.30
Cc1nc2ccc(Cl)cn2c1-c1csc(Nc2ccc(Cl)cc2)n1 [Cpd 60, 4-(6-chloro-2-methylimidazo[1,2-a]pyridin-3-yl)-N-(4-chlorophenyl)-1,3-thiazol-2-amine]	> 6.30
Cc1nc2ccccn2c1-c1ccnc(Nc2ccc(N(C)C)cc2)n1 [Cpd 129, N,N-dimethyl-N′-[4-(2-methylimidazo[1,2-a]pyridin-3-yl)pyrimidin-2-yl]benzene-1,4-diamine]	> 6.30
Cc1ccc(Nc2nc(-c3c(C)nc4ccc(Cl)cn34)cs2)c(C)c1 [Cpd 214, 4-(6-chloro-2-methylimidazo[1,2-a]pyridin-3-yl)-N-(2,4-dimethylphenyl)-1,3-thiazol-2-amine]	> 6.30
CCN(CC)c1ccc(Nc2nccc(-c3cnc4ncccn34)n2)cc1 [Cpd 263, N,N-diethyl-N′-[4-(imidazo[1,2-a]pyrimidin-3-yl)pyrimidin-2-yl]benzene-1,4-diamine]	> 6.30
Fc1ccccc1Nc1nccc(-c2cnc3ccccn23)n1 [Cpd 166, N-(2-fluorophenyl)-4-(imidazo[1,2-a]pyridin-3-yl)pyrimidin-2-amine]	> 6.30
COc1ccc(Nc2nc(-c3c(C)nc4ccc(F)cn34)cs2)cc1F [Cpd 155, N-(3-fluoro-4-methoxyphenyl)-4-(6-fluoro-2-methylimidazo[1,2-a]pyridin-3-yl)-1,3-thiazol-2-amine]	> 6.30
Cc1ccc(N(C)c2nccc(-c3c(C)nc4ccccn34)n2)cc1 [Cpd 189, N-methyl-4-(2-methylimidazo[1,2-a]pyridin-3-yl)-N-(4-methylphenyl)pyrimidin-2-amine]	> 6.30
COc1ccc(Nc2nc(-c3c(C)nc4cc(Cl)ccn34)cs2)cc1 [Cpd 241, 4-(7-chloro-2-methylimidazo[1,2-a]pyridin-3-yl)-N-(4-methoxyphenyl)-1,3-thiazol-2-amine]	> 6.30
CC(=O)Nc1ccc(Nc2nc(-c3c(C)nc4ccc(Cl)cn34)cs2)cc1 [Cpd 97, N-(4-{[4-(6-chloro-2-methylimidazo[1,2-a]pyridin-3-yl)-1,3-thiazol-2-yl]amino}phenyl)acetamide]	> 6.30
Cc1nc2ccccn2c1-c1ccnc(N(C)c2ccc3c(c2)OCO3)n1 [Cpd 139, N-(1,3-benzodioxol-5-yl)-N-methyl-4-(2-methylimidazo[1,2-a]pyridin-3-yl)pyrimidin-2-amine]	> 6.30
Cc1nc2ccccn2c1-c1ccnc(Nc2ccc(I)cc2)n1 [Cpd 119, N-(4-iodophenyl)-4-(2-methylimidazo[1,2-a]pyridin-3-yl)pyrimidin-2-amine]	> 6.30
Cc1nc2cc(Cl)ccn2c1-c1csc(Nc2ccc(Cl)cc2)n1 [Cpd 240, 4-(7-chloro-2-methylimidazo[1,2-a]pyridin-3-yl)-N-(4-chlorophenyl)-1,3-thiazol-2-amine]	> 6.30
COc1cccc(Nc2nc(-c3c(C)nc4ccc(F)cn34)cs2)c1 [Cpd 236, 4-(6-fluoro-2-methylimidazo[1,2-a]pyridin-3-yl)-N-(3-methoxyphenyl)-1,3-thiazol-2-amine]	> 6.30
Cc1cccc(Nc2nc(-c3c(C)nc4ccc(Cl)cn34)cs2)c1 [Cpd 209, 4-(6-chloro-2-methylimidazo[1,2-a]pyridin-3-yl)-N-(3-methylphenyl)-1,3-thiazol-2-amine]	> 6.30
Cc1nc2ncccn2c1-c1ccnc(Nc2ccc3c(c2)OCO3)n1 [Cpd 124, N-(1,3-benzodioxol-5-yl)-4-(2-methylimidazo[1,2-a]pyrimidin-3-yl)pyrimidin-2-amine]	> 6.30
Cc1nc2ccc(Br)cn2c1-c1csc(Nc2ccc(Br)cc2)n1 [Cpd 102, 4-(6-bromo-2-methylimidazo[1,2-a]pyridin-3-yl)-N-(4-bromophenyl)-1,3-thiazol-2-amine]	> 6.30
